The values that follow come from PubChem BioAssay (NCI).

Test systems include 786-0 renal; A549 NSCLC; BT-549 breast; HT29 colon; MCF7 breast; MDA-N; NCI-H460 lung; NCI-H522 lung; NCI/ADR-RES ovarian; OVCAR-3 ovarian; SF-268 CNS; SK-MEL-2 melanoma; SK-MEL-5 melanoma; SNB-19 CNS; SNB-75 CNS; SW-620 colon; UACC-62 melanoma; UO-31 renal; A498 renal; MOLT-4 leukemia.
Common to all, as to test: NCI-60 cell line screen, 48 h

Structures are written as SMILES.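 How tested: cells in 96-well plates exposed to compound for 48 hours at five concentrations. At the TGI there is no net growth.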

With `O=C(NC(=S)Nc1ccc2c(c1)Sc1ccccc1O2)c1ccc([N+](=O)[O-])cc1`, the TGI in the experiment on 786-0 renal, in the experiment with A549 NSCLC, with BT-549 breast, in the experiment on HT29 colon, in the experiment with MCF7 breast and with MDA-N was over 100 µM throughout. In addition, the TGI in the experiment with NCI-H460 lung, with NCI-H522 lung, in the experiment on NCI/ADR-RES ovarian, with OVCAR-3 ovarian, in the experiment with SF-268 CNS and in the experiment on SK-MEL-2 melanoma was over 100 µM each time. The TGI with SK-MEL-5 melanoma, in the experiment with SNB-19 CNS, in the experiment with SNB-75 CNS, with SW-620 colon, in the experiment with UACC-62 melanoma and with UO-31 renal was over 100 µM each time.

Take `CCN(CC)Cc1cc(Nc2c3ccccc3nc3c2[nH]c2ccccc23)cc(CN(CC)CC)c1O`: the TGI in the experiment with 786-0 renal worked out at 0.974 µM; in the experiment on A498 renal, 2.89 µM; with A549 NSCLC, 10.4 µM; in the experiment on BT-549 breast, 2.83 µM; with HT29 colon, 5.1 µM; in the experiment on MCF7 breast, 9.07 µM. Further, the TGI in the experiment on MDA-N amounted to 2.07 µM; with NCI-H460 lung it was 2.01 µM; with NCI-H522 lung, 2.47 µM; in the experiment with SF-268 CNS, 4.73 µM; with SK-MEL-2 melanoma, 3.24 µM; in the experiment on SK-MEL-5 melanoma, 2.95 µM. Besides, the TGI in the experiment with SNB-19 CNS was 5.75 µM; in the experiment on SNB-75 CNS, 2.97 µM; in the experiment with SW-620 colon it was 2.47 µM; with UACC-62 melanoma, 3.02 µM; in the experiment on UO-31 renal, 4.62 µM.

Take `CC(C)(C)c1cc(-c2cc(C(C)(C)C)[nH]n2)n[nH]1`: the TGI in the experiment on 786-0 renal, in the experiment on A498 renal, in the experiment with A549 NSCLC, in the experiment with BT-549 breast, in the experiment on HT29 colon and with MCF7 breast was over 100 µM throughout. Further, the TGI in the experiment on MDA-N, in the experiment with MOLT-4 leukemia, with NCI-H460 lung, with NCI-H522 lung, with OVCAR-3 ovarian and in the experiment on SF-268 CNS was over 100 µM in each case. Also, the TGI in the experiment with SK-MEL-2 melanoma, with SK-MEL-5 melanoma, in the experiment with SNB-19 CNS, in the experiment on SW-620 colon, with UACC-62 melanoma and with UO-31 renal was over 100 µM in each case.

Turning to `CC1(C)CC(=O)C(/C=N/C(N)=S)=C(O)C1`, the TGI with 786-0 renal, in the experiment with A549 NSCLC, in the experiment on BT-549 breast, with HT29 colon, with MCF7 breast and in the experiment on MDA-N was over 100 µM throughout. Further, the TGI in the experiment on MOLT-4 leukemia, with NCI-H460 lung, in the experiment with NCI-H522 lung, with NCI/ADR-RES ovarian, with OVCAR-3 ovarian and in the experiment with SF-268 CNS was over 100 µM each time. Also, the TGI with SK-MEL-2 melanoma, in the experiment on SK-MEL-5 melanoma, with SNB-19 CNS, with SNB-75 CNS, in the experiment with SW-620 colon and in the experiment with UACC-62 melanoma was over 100 µM each time. The same compound registered a TGI in the experiment on UO-31 renal of over 100 µM.

As for `C=C1CC2CCCC12C=O` (stereo not drawn), the TGI in the experiment with 786-0 renal, in the experiment on A549 NSCLC, with BT-549 breast, with HT29 colon, in the experiment with MCF7 breast and in the experiment on MDA-N was over 10 µM in each case. The TGI in the experiment with MOLT-4 leukemia, in the experiment on NCI-H522 lung, with NCI/ADR-RES ovarian, in the experiment on OVCAR-3 ovarian, in the experiment on SF-268 CNS and in the experiment on SK-MEL-5 melanoma was over 10 µM each time. Also, the TGI in the experiment on SNB-19 CNS, in the experiment on SNB-75 CNS, with SW-620 colon and in the experiment on UACC-62 melanoma was over 10 µM throughout.

Consider `Cc1c2ccnc(C(=O)NCCN(C)C)c2cc2c3cc(O)ccc3n(C)c12`, for which the TGI with 786-0 renal is 3.37 µM; in the experiment on A549 NSCLC, 7.26 µM; in the experiment with BT-549 breast it was 10.7 µM; with HT29 colon, 3.87 µM; in the experiment with MCF7 breast, 5.75 µM; in the experiment with MDA-N it was 1.93 µM. Moreover, the TGI in the experiment with MOLT-4 leukemia was found to be 0.0147 µM; with NCI-H460 lung, 1.39 µM; with NCI-H522 lung, 1.02 µM; with NCI/ADR-RES ovarian, 6.64 µM; with OVCAR-3 ovarian it was 2.77 µM; in the experiment with SF-268 CNS it was 2.28 µM. Besides, the TGI in the experiment with SK-MEL-2 melanoma is 1.7 µM; with SK-MEL-5 melanoma, 1.45 µM; with SNB-19 CNS, 5.16 µM; with SNB-75 CNS it was 2.19 µM; with SW-620 colon, 4.36 µM; with UACC-62 melanoma, 1.01 µM. For the same compound, in the experiment with UO-31 renal, the TGI was 4.11 µM.

For `Cn1c(NNc2ccccc2)cc(=O)[nH]c1=O`, the TGI was 44.2 µM with 786-0 renal; over 100 µM in the experiment with A549 NSCLC; over 100 µM with BT-549 breast; over 100 µM in the experiment on HT29 colon; over 100 µM with MCF7 breast; 45.4 µM with MDA-N. The TGI was over 100 µM in the experiment on MOLT-4 leukemia; over 100 µM in the experiment with NCI-H460 lung; 40.5 µM with NCI-H522 lung; over 100 µM in the experiment with NCI/ADR-RES ovarian; 61.6 µM with OVCAR-3 ovarian; over 100 µM with SF-268 CNS. Moreover, the TGI in the experiment on SK-MEL-2 melanoma was over 100 µM; in the experiment on SK-MEL-5 melanoma, 70.1 µM; in the experiment on SNB-19 CNS it was over 100 µM; in the experiment with SNB-75 CNS it was over 100 µM; in the experiment with SW-620 colon, over 100 µM; in the experiment on UACC-62 melanoma, over 100 µM. Also, in the experiment on UO-31 renal, the TGI was over 100 µM.

For `COc1cc2nc(Nc3cccc(Br)c3)nc(Nc3cccc(Br)c3)c2cc1OC`, the TGI with 786-0 renal came to 31 µM; with A549 NSCLC it was 32.6 µM; in the experiment with BT-549 breast it was 30.7 µM; in the experiment with HT29 colon, 34.8 µM; in the experiment on MCF7 breast it was 32.4 µM; with MDA-N it was 32.8 µM. The TGI was 47.2 µM in the experiment on MOLT-4 leukemia; 51.8 µM in the experiment with NCI-H460 lung; 32.4 µM in the experiment with NCI-H522 lung; 37.5 µM in the experiment on NCI/ADR-RES ovarian; 31.2 µM with OVCAR-3 ovarian; 29.9 µM in the experiment with SF-268 CNS. The TGI with SK-MEL-2 melanoma amounted to 36.1 µM; in the experiment with SK-MEL-5 melanoma it was 30.7 µM; in the experiment with SNB-19 CNS, 32.3 µM; with SNB-75 CNS, 31.8 µM; in the experiment on SW-620 colon, 45.8 µM; with UACC-62 melanoma, 32.8 µM. Besides, the TGI in the experiment on UO-31 renal came to 29.4 µM.

On to `CCCC(=O)NC(Nc1cc(C)ccn1)(C(=O)OCC)C(F)(F)F` (stereo not drawn), for which the TGI in the experiment on 786-0 renal, in the experiment with A549 NSCLC, with BT-549 breast, in the experiment on HT29 colon, in the experiment on MCF7 breast and with MDA-N was over 100 µM throughout. For the same compound, the TGI in the experiment on MOLT-4 leukemia, with NCI-H522 lung, with NCI/ADR-RES ovarian, with OVCAR-3 ovarian, in the experiment with SF-268 CNS and with SK-MEL-2 melanoma was over 100 µM throughout. For the same compound, the TGI with SK-MEL-5 melanoma, with SNB-19 CNS, in the experiment on SNB-75 CNS, in the experiment with SW-620 colon, in the experiment with UACC-62 melanoma and with UO-31 renal was over 100 µM each time.

For the compound `O=P1(Oc2ccccc2)N=P(c2ccccc2)(c2ccccc2)C=C(c2ccc(Cl)cc2)N1` (stereo not drawn), the TGI in the experiment with 786-0 renal came to 28 µM; in the experiment with A549 NSCLC, 16.1 µM; in the experiment on BT-549 breast, 29.6 µM; with HT29 colon, 15.5 µM; in the experiment on MCF7 breast, 9.31 µM; in the experiment on MDA-N it was 22.8 µM. Besides, the TGI was determined as 22.4 µM in the experiment on MOLT-4 leukemia; 18.5 µM in the experiment with NCI-H460 lung; 24.2 µM in the experiment with NCI-H522 lung; 27.9 µM with NCI/ADR-RES ovarian; 13.6 µM with OVCAR-3 ovarian; 26.2 µM with SF-268 CNS. Also, the TGI was 27.6 µM with SK-MEL-2 melanoma; 10.2 µM with SK-MEL-5 melanoma; 29.7 µM in the experiment with SNB-19 CNS; 29.5 µM with SW-620 colon; 27.5 µM with UACC-62 melanoma; 25.8 µM in the experiment with UO-31 renal.

Consider `N#Cc1cnc(-n2[nH]c3c(c2=O)CCCC3)[nH]c1=O`, for which the TGI with 786-0 renal, with A498 renal, with A549 NSCLC, in the experiment on BT-549 breast, with HT29 colon and with MCF7 breast was over 100 µM throughout. For the same compound, the TGI with MDA-N, in the experiment with MOLT-4 leukemia, in the experiment on NCI-H460 lung, in the experiment on NCI-H522 lung, in the experiment on SF-268 CNS and in the experiment with SK-MEL-2 melanoma was over 100 µM each time. Also, the TGI in the experiment on SK-MEL-5 melanoma was over 100 µM; with SNB-19 CNS, over 100 µM; with SNB-75 CNS it was 55.9 µM; with SW-620 colon it was over 100 µM; with UACC-62 melanoma it was over 100 µM; in the experiment with UO-31 renal it was over 100 µM.

Take `CC1(C)CC(O)C2=C(O1)C(=O)c1ncccc1C2=O` (stereo not drawn): the TGI in the experiment with 786-0 renal turned out to be 3.62 µM; with A498 renal it was 18.6 µM; in the experiment with A549 NSCLC, 23.4 µM; in the experiment on BT-549 breast, 3.18 µM; in the experiment on HT29 colon it was 35.8 µM; in the experiment on MCF7 breast it was 5.34 µM. The TGI in the experiment with MDA-N was found to be 3.45 µM; with MOLT-4 leukemia, 4.55 µM; with NCI-H460 lung it was 5.89 µM; in the experiment with NCI-H522 lung it was 3.86 µM; with OVCAR-3 ovarian, 5.4 µM; in the experiment on SF-268 CNS, 4.85 µM. The TGI in the experiment with SK-MEL-2 melanoma is 6.74 µM; with SK-MEL-5 melanoma, 3.1 µM; with SNB-19 CNS, 9.2 µM; in the experiment on SNB-75 CNS, 2.1 µM; in the experiment on SW-620 colon it was 3.56 µM; with UACC-62 melanoma it was 3.15 µM. Moreover, in the experiment on UO-31 renal, the TGI came out at 4.34 µM.
